Measurements: patent US4195101A, “2',6'-Dihydroxy-9-(2,5-dihydroxyphenyl)octylphenone and its use as an anti-oxidant” (The Lion Dentifrice Co. Ltd., priority 1977, dated 1980)

How the values were obtained:
[1] = Solubility rating of 10 mg of the crystal in various solvents (Table I); type: physicochemical; conditions: for Rating of Solubility: 10 mg of crystal
Protocol: This compound is obtained as needle-like or plate-like crystals white to pale-yellow in appearance, tasteless, odorless and non-irritative, and has a melting point of 123.5° to 124° C. The compound is soluble in various solvents as shown in Table I. In Table I, the solubility of the compound was rated by A, B, C and D and each rating was determined for 10 mg of the crystal as follows.
A: Soluble in less than 0.1 ml of solvent.
B: Soluble in 0.1-1.0 ml of solvent.
C: Soluble in 1.0-10.0 ml of solvent.
[…]: Soluble in more than 10.0 ml of solvent.

[2] = Test I: peroxide value of refined lard by the active oxygen method (AOM); conditions: for Peroxide value: 97.5° C.
Protocol: (§1) The above-obtained compound was tested for its anti-oxidative effects in terms of peroxide value by the active oxygen method (AOM) and also in terms of oxygen absorption. […] Each of the tests I and II are described below together with the results thereof.
Varied amounts of the compound were admixed with and uniformly dissolved in portions of refined lard each weighing 20 g to prepare test samples. Each test sample was kept in an oil bath of thermostat at 97.5°±0.5° C., while air was forcedly blown into the lard at a rate of […].
The thus treated samples of the lard were analyzed for the peroxide value (POV for brevity) periodically or at certain intervals, in accordance with the modified Lea's method as described in "Yukagaku" (Journal of Japan Oil Chemist Society), vol. 19(15), p. 340, 1970.
In comparison, similar experiments were undertaken for the samples of the same lard with addition of BHA instead of the compound of the present invention or without addition of any anti-oxidant.

[3] = Test II: oxygen absorption in corn salad oil, Warburg's manometer; conditions: 0.02% by weight in corn salad oil, 60° C.
Protocol: as §1
The compound of the present invention was determined for the rate of oxygen absorption in a corn salad oil to which 0.02% by weight of the compound had been added. For the purpose, 2 grams of the corn salad oil sample was taken in the receptacle of Warburg's manometer with thermostat at 60°±0.1° C., which was shaken with 110 vibrations per minute in a vibration amplitude of 60 mm. The rate of oxygen absorption was determined by reading the manometer according to the procedure set forth in "Jikken Kagaku Koza" (Lectures in Experimental Chemistry), vol. 24, p. 85, 1958, Maruzen Publishing, Japan. In this testing, the receptacle was totally wrapped with an aluminum foil to prevent the photooxidation of the oil, and mercury was used as the manometer fluid in place of Brodie's solution in order to minimize any possible influence caused by fluctuations in the atmospheric pressure.
Further, in comparison, a similar test was conducted using the same corn salad oil with addition of 0.02% by weight of BHA or without addition of any anti-oxidant.

[4] = Anti-oxidative activity, general statements
[5] = Irritation (statement on properties of the compound)
[6] = LD50, oral administration, mouse; conditions: in vivo, po
[7] = tested on: mouse; experiment: LD50, oral administration, mouse

## O=C(CCCCCCCCc1cc(O)ccc1O)c1c(O)cccc1O [Inventive compound, 2',6'-dihydroxy-9-(2,5-dihydroxyphenyl)octylphenone]
[1]; 1,2-Dichloroethane, at 25° C.
  Rating of Solubility: C (Soluble in 1.0-10.0 ml of solvent)
[1]; 1,2-Dichloroethane, at the boiling point of solvent
  Rating of Solubility: A (Soluble in less than 0.1 ml of solvent)
[1]; Acetone, at 25° C.
  Rating of Solubility: A (Soluble in less than 0.1 ml of solvent)
[1]; Acetone, at the boiling point of solvent
  Rating of Solubility: A (Soluble in less than 0.1 ml of solvent)
[1]; Acetonitrile, at 25° C.
  Rating of Solubility: A (Soluble in less than 0.1 ml of solvent)
[1]; Acetonitrile, at the boiling point of solvent
  Rating of Solubility: A (Soluble in less than 0.1 ml of solvent)
[1]; Benzene, at the boiling point of solvent
  Rating of Solubility: B (Soluble in 0.1-1.0 ml of solvent)
[1]; Carbon tetrachloride, at the boiling point of solvent
  Rating of Solubility: C (Soluble in 1.0-10.0 ml of solvent)
[1]; Chloroform, at 25° C.
  Rating of Solubility: C (Soluble in 1.0-10.0 ml of solvent)
[1]; Chloroform, at the boiling point of solvent
  Rating of Solubility: C (Soluble in 1.0-10.0 ml of solvent)
[1]; Dichloromethane, at the boiling point of solvent
  Rating of Solubility: C (Soluble in 1.0-10.0 ml of solvent)
[1]; Diethylether, at 25° C.
  Rating of Solubility: A (Soluble in less than 0.1 ml of solvent)
[1]; Diethylether, at the boiling point of solvent
  Rating of Solubility: A (Soluble in less than 0.1 ml of solvent)
[1]; Ethyl acetate, at 25° C.
  Rating of Solubility: A (Soluble in less than 0.1 ml of solvent)
[1]; Ethyl acetate, at the boiling point of solvent
  Rating of Solubility: A (Soluble in less than 0.1 ml of solvent)
[1]; Ethyl alcohol, at 25° C.
  Rating of Solubility: A (Soluble in less than 0.1 ml of solvent)
[1]; Ethyl alcohol, at the boiling point of solvent
  Rating of Solubility: A (Soluble in less than 0.1 ml of solvent)
[1]; Methyl alcohol, at 25° C.
  Rating of Solubility: A (Soluble in less than 0.1 ml of solvent)
[1]; Methyl alcohol, at the boiling point of solvent
  Rating of Solubility: A (Soluble in less than 0.1 ml of solvent)
[1]; Pyridine, at 25° C.
  Rating of Solubility: A (Soluble in less than 0.1 ml of solvent)
[1]; Pyridine, at the boiling point of solvent
  Rating of Solubility: A (Soluble in less than 0.1 ml of solvent)
[1]; Toluene, at the boiling point of solvent
  Rating of Solubility: B (Soluble in 0.1-1.0 ml of solvent)
[1]; ethyl acetate and ethyl alcohol, in words
  solubility in ethyl acetate and ethyl alcohol: readily soluble
[1]; iso-Propyl alcohol, at 25° C.
  Rating of Solubility: A (Soluble in less than 0.1 ml of solvent)
[1]; iso-Propyl alcohol, at the boiling point of solvent
  Rating of Solubility: A (Soluble in less than 0.1 ml of solvent)
[1]; ligroin and chloroform, in words
  solubility in ligroin and chloroform: insoluble or hardly soluble
[1]; n-Butyl alcohol, at 25° C.
  Rating of Solubility: A (Soluble in less than 0.1 ml of solvent)
[1]; n-Butyl alcohol, at the boiling point of solvent
  Rating of Solubility: A (Soluble in less than 0.1 ml of solvent)
[1]; n-Propyl alcohol, at 25° C.
  Rating of Solubility: A (Soluble in less than 0.1 ml of solvent)
[1]; n-Propyl alcohol, at the boiling point of solvent
  Rating of Solubility: A (Soluble in less than 0.1 ml of solvent)
[1]; room temperature, in words
  solubility in 1,2-dichloroethane, toluene or benzene: insoluble or hardly soluble
[2]; 0.001 (% by weight) in lard, 8 hours
  Peroxide value: 2.4 meq./kg
[2]; 0.001 (% by weight) in lard, 16 hours
  Peroxide value: 5.3 meq./kg
[2]; 0.001 (% by weight) in lard, 24 hours
  Peroxide value: 8.2 meq./kg
[2]; 0.001 (% by weight) in lard, 32 hours
  Peroxide value: 14.9 meq./kg
[2]; 0.001 (% by weight) in lard, 40 hours
  Peroxide value: 419.9 meq./kg
[2]; 0.005% by weight in lard, 8 hours
  Peroxide value: 1.8 meq./kg
[2]; 0.005% by weight in lard, 16 hours
  Peroxide value: 5.0 meq./kg
[2]; 0.005% by weight in lard, 24 hours
  Peroxide value: 5.9 meq./kg
[2]; 0.005% by weight in lard, 32 hours
  Peroxide value: 6.3 meq./kg
[2]; 0.005% by weight in lard, 48 hours
  Peroxide value: 12.0 meq./kg
[2]; 0.005% by weight in lard, 56 hours
  Peroxide value: 18.2 meq./kg
[2]; 0.005% by weight in lard, 64 hours
  Peroxide value: 560.9 meq./kg
[2]; 0.005% by weight of the compound in lard
  prevention of oxidative denaturation of lard, compared with 0.02% by weight of BHA: to the same extent as done by adding 0.02% by weight of BHA
[2]; 0.01% by weight in lard, 8 hours
  Peroxide value: 1.5 meq./kg
[2]; 0.01% by weight in lard, 16 hours
  Peroxide value: 3.2 meq./kg
[2]; 0.01% by weight in lard, 24 hours
  Peroxide value: 4.8 meq./kg
[2]; 0.01% by weight in lard, 32 hours
  Peroxide value: 5.4 meq./kg
[2]; 0.01% by weight in lard, 40 hours
  Peroxide value: 7.7 meq./kg
[2]; 0.01% by weight in lard, 48 hours
  Peroxide value: 9.3 meq./kg
[2]; 0.01% by weight in lard, 56 hours
  Peroxide value: 11.3 meq./kg
[2]; 0.01% by weight in lard, 64 hours
  Peroxide value: 15.4 meq./kg
[2]; 0.01% by weight in lard, 72 hours
  Peroxide value: 22.1 meq./kg
[2]; 0.01% by weight in lard, 80 hours
  Peroxide value: 170.9 meq./kg
[2]; 0.02% by weight
  anti-oxidative effect compared with the same amount of BHA: approximately twice as high as the same amount of BHA
[2]; 0.02% by weight in lard, 8 hours
  Peroxide value: 1.8 meq./kg
[2]; 0.02% by weight in lard, 16 hours
  Peroxide value: 2.9 meq./kg
[2]; 0.02% by weight in lard, 24 hours
  Peroxide value: 3.8 meq./kg
[2]; 0.02% by weight in lard, 32 hours
  Peroxide value: 4.5 meq./kg
[2]; 0.02% by weight in lard, 40 hours
  Peroxide value: 6.0 meq./kg
[2]; 0.02% by weight in lard, 48 hours
  Peroxide value: 7.2 meq./kg
[2]; 0.02% by weight in lard, 56 hours
  Peroxide value: 8.2 meq./kg
[2]; 0.02% by weight in lard, 64 hours
  Peroxide value: 10.6 meq./kg
[2]; 0.02% by weight in lard, 72 hours
  Peroxide value: 13.2 meq./kg
[2]; 0.02% by weight in lard, 80 hours
  Peroxide value: 14.5 meq./kg
[2]; 0.02% by weight in lard, 96 hours
  Peroxide value: 21.5 meq./kg
[2]; 0.02% by weight in lard, 112 hours
  Peroxide value: 59.3 meq./kg
[2]; 0.02% by weight in lard, 120 hours
  Peroxide value: 390.7 meq./kg
[2]; 0.1% by weight in lard, 8 hours
  Peroxide value: 2.1 meq./kg
[2]; 0.1% by weight in lard, 16 hours
  Peroxide value: 3.0 meq./kg
[2]; 0.1% by weight in lard, 24 hours
  Peroxide value: 4.1 meq./kg
[2]; 0.1% by weight in lard, 32 hours
  Peroxide value: 5.2 meq./kg
[2]; 0.1% by weight in lard, 40 hours
  Peroxide value: 7.9 meq./kg
[2]; 0.1% by weight in lard, 48 hours
  Peroxide value: 8.7 meq./kg
[2]; 0.1% by weight in lard, 56 hours
  Peroxide value: 9.9 meq./kg
[2]; 0.1% by weight in lard, 64 hours
  Peroxide value: 11.8 meq./kg
[2]; 0.1% by weight in lard, 72 hours
  Peroxide value: 13.5 meq./kg
[2]; 0.1% by weight in lard, 80 hours
  Peroxide value: 16.0 meq./kg
[2]; 0.1% by weight in lard, 96 hours
  Peroxide value: 18.5 meq./kg
[2]; 0.1% by weight in lard, 112 hours
  Peroxide value: 24.0 meq./kg
[2]; 0.1% by weight in lard, 120 hours
  Peroxide value: 24.1 meq./kg
[2]; 0.1% by weight in lard, 144 hours
  Peroxide value: 29.9 meq./kg
[2]; 0.1% by weight in lard, 168 hours
  Peroxide value: 32.1 meq./kg
[2]; 0.1% by weight in lard, 192 hours
  Peroxide value: 38.1 meq./kg
[2]; 0.1% by weight in lard, 200 hours
  Peroxide value: 45.0 meq./kg
[2]; 0.1% by weight in lard, 264 hours
  Peroxide value: 678.2 meq./kg
[3]; 85 hours
  Oxygen absorption: 84.4 μ1/g
[3]; 140 hours
  Oxygen absorption: 138.7 μ1/g
[3]; 166 hours
  Oxygen absorption: 159.8 μ1/g
[3]; 199 hours
  Oxygen absorption: 174.8 μ1/g
[3]; 263 hours
  Oxygen absorption: 238.0 μ1/g
[3]; 288 hours
  Oxygen absorption: 280.4 μ1/g
[3]; 320 hours
  Oxygen absorption: 334.6 μ1/g
[3]; 343 hours
  Oxygen absorption: 375.3 μ1/g
[4]; AOM peroxide value and oxygen absorption
  anti-oxidative activities (summary of peroxide value and oxygen absorption tests): excellent anti-oxidative activities
[4]; in foodstuffs, such as lard or the like
  anti-oxidative activities compared with the conventional anti-oxidant BHA: much higher anti-oxidative activities than the conventional anti-oxidant BHA
[5]
  irritation: non-irritative
[6]
  LD50: > 2000 mg/kg
[7]
  LD50 value compared with BHT: about the same as in BHT
